For this data set, the target named is APOL1. To be noted: ASO.

“And” between values parts separate entries of the source, which are not always exact repeats. Identical values can stand only once. After the bases stand the sugars from the 5' end (letter, count) and the backbone: PS all phosphorothioate, else s phosphorothioate and o phosphodiester by linkage. Methylation of C is not given here. e = 2'-O-(2-methoxyethyl) (MOE); k = constrained ethyl (cEt); d = 2'-deoxy (DNA)

Where the note is “A431, 2 µM”, “CTTTATACCAGTGTCT (sugars kkddddkekekddddd, PS)” gave a target mRNA inhibition of 86%.
Still for that read-out and setting: next, “AGTATTGTTTTTGTGG (sugars k2 d4 e3 k2 d5, PS)”: 90%; “AGTATTGCCAGCTAAG (sugars k2 d4 e4 k2 d4, PS)”: 59%.
Same read-out and setting: next, “AAGCTTTAAACTCAGG (sugars kkddddkekekddddd, PS)”: 48%.
Still for that read-out and setting: next, “TTATGAAATTATTGGT (sugars kkdddddkekeddddd, PS)”: 63%.
As for “GTTCTAACTCTTGGGC (sugars k3 d4 k3 e1 d5, PS)”, the target mRNA inhibition (A431, 2 µM) was found to be 58%.
Still for that read-out and setting: the result for “TTTATACCAGTGTCTT (sugars kkddddekekeddddd, PS)” reads 90%.
Regarding TTACATGCACGATCTC (sugars k3 d10 k3, PS), the target mRNA inhibition turned out to be 18% (A431, 0.0625 µM); 56% (A431, 0.25 µM); 78% (A431, 1 µM).
“CACATCATTGGGTTAT (sugars kkddddkekekddddd, PS)” had a target mRNA inhibition (A431, 2 µM) of 74%.
Still for that read-out and setting: next, “ATTTCTTGATGTGGTG (sugars kddddkekekeddddd, PS)”: 81%.
In the case of GCAGGTTCACATGACA (sugars k4 d9 k3, PS), the target mRNA inhibition worked out at 39% (A431, 0.0625 µM); 58% (A431, 0.25 µM); 72% (A431, 1 µM).
Take GGCAAGGCTAAGTTCC (sugars k4 d9 k3, PS): the target mRNA inhibition runs as follows: (A431, 0.0625 µM) 41%; (A431, 0.25 µM) 75%; (A431, 1 µM) 84%.
Consider “GTTCTAACTCTTGGGC (sugars kkkddddkekeddddd, PS)”, for which the target mRNA inhibition (A431, 2 µM) was 66%.
Still for that read-out and setting: next, “CTGAAGATTGGCTCTG (sugars kkddddekekeddddd, PS)”: 53%.
As for GATGTGTTTAGGCATT (sugars k4 d9 k3, PS), the target mRNA inhibition reads like this: (A431, 0.25 µM) 71% and 83%; (A431, 1 µM) 90% and 91%.
Take “TATTTCTTGATGTGGT (sugars kkkddddkekekdddd, PS)”: the target mRNA inhibition reads like this: (A431, 0.0156 µM) 17%; (A431, 0.0625 µM) 61%; (A431, 0.25 µM) 80%; (A431, 1 µM) 89%; (A431, 2 µM) 95%.
The sequence “TTTGTAAGTGCAACCA (sugars kkkddddkekekdddd, PS)” displayed a target mRNA inhibition (A431, 2 µM) of 63%.
As for “TCCGTCAATATATTCT (sugars k2 d4 e3 k2 d5, PS)”, the target mRNA inhibition stood at 27% (A431, 0.0156 µM); 59% (A431, 0.0625 µM); 84% (A431, 0.25 µM); 93% (A431, 1 µM); 96% (A431, 2 µM).
For the setting “A431, 2 µM”, “ACACATCATTGGGTTA (sugars k2 d4 e3 k2 d5, PS)” showed a target mRNA inhibition of 51%.
Same read-out and setting: the result for “GCTAATTTTCTGACTG (sugars kkddddekekeddddd, PS)” reads 88%.
Same read-out and setting: the result for “GTTATGAAATTATTGG (sugars kkddddkdkdkddddd, PS)” reads 71%.
Take TGATGTGGGACTTGTT (sugars k4 d9 k3, PS): the target mRNA inhibition was determined as 61% (A431, 0.0625 µM); 84% (A431, 0.25 µM); 93% (A431, 1 µM).
The sequence “CGCAATGCTGACTTGG (sugars k2 d4 e3 k2 d5, PS)” registered a target mRNA inhibition (A431, 2 µM) of 88%.
Take AGAACTCAAGTCAGTA (sugars k4 d9 k3, PS): the target mRNA inhibition was 38% and 62% (A431, 0.0625 µM); 67% and 83% (A431, 0.25 µM); 86% and 88% (A431, 1 µM).
Turning to TTCTATTGGGCCTCAG (sugars k4 d9 k3, PS), the target mRNA inhibition by setting is: (A431, 0.0625 µM) 74%; (A431, 0.25 µM) 87%; (A431, 1 µM) 94%.
“GCTTTAAACTCAGGTG (sugars kkddddkekekddddd, PS)” displayed a target mRNA inhibition (A431, 2 µM) of 86%.
Regarding GTGTGATAACTAGCTG (sugars k4 d9 k3, PS), the target mRNA inhibition is 78% (A431, 0.0625 µM); 88% (A431, 0.25 µM); 93% (A431, 1 µM).
In the case of TGTTATATTTGATCCT (sugars k3 d10 k3, PS), the target mRNA inhibition is, setting by setting: (A431, 0.0625 µM) 67%; (A431, 0.25 µM) 90%; (A431, 1 µM) 98%.
The sequence “CAACACATCATTGGGT (sugars k2 d4 e3 k2 d5, PS)” showed a target mRNA inhibition (A431, 2 µM) of 80%.
Take TTTTAGAAAGGACACG (sugars k4 d9 k3, PS): the target mRNA inhibition runs as follows: (A431, 0.0625 µM) 42%; (A431, 0.25 µM) 67%; (A431, 1 µM) 85%.
As for CTTCTTATGTTATCCT (sugars k4 d9 k3, PS), the target mRNA inhibition reads like this: (A431, 0.0625 µM) 35%; (A431, 0.25 µM) 72%; (A431, 1 µM) 85%.
On to ACTGTTCTAACTCTTG (sugars k4 d9 k3, PS), for which the target mRNA inhibition is 85% (A431, 0.0625 µM); 92% (A431, 0.25 µM); 95% (A431, 1 µM).

Values taken from the OligoGym collection.
